Data: a melting point compilation (Tetko et al.; mined from patent text by program, amines drawn as free bases though some values may be those of a salt)

| melting point [°C] | Structure (SMILES) |
| --- | --- |
| 139 to 142 | O[C@@H]1CCCC[C@H]1Nc1nc(Cl)ncc1Cl (relative stereo) |
| 233 | CCOC(=O)C(=O)Nc1ccc2cccc([N+](=O)[O-])c2c1[N+](=O)[O-] |
| 205 to 206 | Cn1ncc(/C=C\C(=O)O)c1-c1ccc(F)cc1 |
| 177 to 179 | Cc1c(CC2CCc3c(c4ccccc4n3CC3CCCC3)C2=O)ncn1C(c1ccccc1)(c1ccccc1)c1ccccc1 (stereo not drawn) |
| 154 to 156 | CCCn1ncnc1COc1nc2c(nnn2-c2ccccc2)c2ccccc12 |
| 228 to 229 | CCCc1c2c(c(OC)c3c(=O)cc(C(=O)O)oc13)CCCC2 |
| > 265 | COc1cc2cc3[nH]cc(C#N)c(=O)c3cc2cc1OC |
| 208 to 210 | ON=Cc1ccc(-c2ccc(O)cc2)c(Cl)c1Cl |
| 120 to 121 | COC(=O)C(=O)c1cc(Cl)c(OCCOc2ccc3ccccc3c2)c(Cl)c1 |
| 273 to 278 | CS(=O)(=O)c1ccc(-c2cnn(-c3ccc(C#N)cc3)c(=O)c2-c2ccc(F)cc2)cc1 |
| 187 to 191 | CN(O)C(=N)c1nn(-c2c(Cl)cc(C(F)(F)F)cc2Cl)c(N)c1S(=O)C(F)(F)F (stereo not drawn) |
| 199 to 202 | CSCCCn1c(C)nc2c(N)nc3ccccc3c21 |
| 109 to 113 | CC(Cc1cc2ccccc2[nH]1)(NC(=O)OC1C2CC3CC(C2)CC1C3)C(=O)NCC(NC(=O)CCC(=O)OCc1ccccc1)c1ccccc1 (stereo not drawn) |
| 32 to 33 | O=C1OCCN1CCO |
| 143 to 144 | CCCCOc1ncc(C(C)=O)cc1-c1nc2c(CC)n(C3CN(CC)C3)nc2c(=O)[nH]1 |
| 115 to 135 | COc1cc(C(=O)NS(=O)(=O)c2ccccc2C)ccc1Cc1cn(C)c2ccc(CC3CCN(C)C3=O)cc12 (stereo not drawn) |
| 235 to 237 | O=c1c2c([nH]n1-c1ccc(Cl)cc1)-c1ccccc1SC2 |
| 60 to 61 | CCCCCc1cccn1NS(=O)(=O)C1CCCC=C1C(=O)OCC (stereo not drawn) |
| 152 to 154 | O=C(O)CCC(CSc1nc2ccccc2s1)C(=O)O (stereo not drawn) |
| 105 to 107 | COc1ccc(-c2ccc(CCC#N)cc2)cc1 |
| 89 to 91 | NS(=O)(=O)c1ccc(F)c(F)c1 |
| 217 to 218 | NS(=O)(=O)c1ccc(CCNC(=O)c2nc(-c3ccccc3)no2)cc1 |
| 63 to 65 | O=C(COC1CCCCO1)c1ccccn1 (stereo not drawn) |
| 58 to 61 | Cc1ccc(C)c(C(=O)c2cc(Cl)ccc2Cl)c1 |

| melting point [°C] | Structure (SMILES) |
| --- | --- |
| 184 to 186 | NNC(=O)c1cnc2n(c1=O)CCCCC2 |
| 180 to 183 | COc1c(Cl)ccc(-c2cc(N)c(Cl)c(C(=O)NOC3CCCO3)n2)c1F (stereo not drawn) |
| 255 to 258 | CC(=NC12CC3CC(CC(C3)C1)C2)NC12CC3CC(CC(C3)C1)C2 |
| 67 to 71 | CON1CCC2(CC1)SC(=O)C(c1c(C)cc(C)cc1C)=C2O |
| 240 to 242 | O=C(C1Nc2cc(F)ccc2-n2cnc(-c3nc(C4CC4)no3)c21)N1CCOCC1 (stereo not drawn) |
| 146 | CC(C)(C)C(O)(c1ccccc1)c1cc(Cl)ccc1O (stereo not drawn) |
| 68 to 70 | CC(C)=C(C(=O)OCc1ccccc1)N1C(=O)C(Br)(Br)C1Br (stereo not drawn) |
| 61 to 62 | Cc1cc2c(cc1C(C)O)OCO2 (stereo not drawn) |
| 151 to 154 | COc1ccc2[nH]c3c(c2c1)CCSc1ccccc1-3 |
| 163 to 164 | CCOC(=O)Cc1c(Br)cnc2c([N+](=O)[O-])cccc12 |
| 139 to 140 | O=c1ccn(-c2cccc(C(F)(F)F)c2)nc1-c1ccnn1-c1ccccc1Cl |
| 210 to 212 | CCNC(=O)N1CCc2[nH]cnc2C1CCC1CCCCC1 (stereo not drawn) |
| 251 to 253 | Nc1ccc(Oc2cccc3c(Oc4ccc(N)c(O)c4)cccc23)cc1O |
| 103 to 107 | O=C(Cn1c(-c2ccc(F)cc2)ncc(NC(=O)OCc2ccccc2)c1=O)NC(Cc1ccccc1)C(=O)C(F)(F)F (stereo not drawn) |
| 287 to 289 | Cc1cnc2[nH]cc(/C=C3\N=C(N(C)CC(C)C)NC3=O)c2c1 |
| 148 to 149 | COC(=O)C(N)(CO)Cc1c[nH]c2ccccc12 (racemic) |
| 151 | C#CCSc1nn(C(=O)NS(=O)(=O)c2c(C)cccc2OCCC)c(=O)n1C |
| 98 to 99 | CN(C)OC(=O)C(C)(c1ccc(OCc2ccc3ccccc3n2)cc1)C1CCCCC1 (stereo not drawn) |
| 178 to 179 | Cc1oc(-c2ccccc2)nc1COc1ccc(COc2ccc3ccccc3c2CC#N)cc1 |
| 137 | CC#CCOc1ccc(SC(C(=O)O)c2ccc(-c3cccs3)cc2)cc1 (stereo not drawn) |
| 244 to 246 | CC(C(=O)O)c1ccc(-c2cn3ccccc3n2)cc1 (stereo not drawn) |
| 132 to 136 | CCCCOC(=O)COc1ccc(C(=O)Nc2cccc(Cl)c2Cl)cc1 |
| 189 to 191 | CCOC(=O)c1c(OCN2C(=O)c3c(C(C)C)cc(OC)cc3S2(=O)=O)nc2ncccn2c1=O |
| 207 | CC(C)(C)OC(=O)NCc1cc(C(=O)O)ccn1 |

| melting point [°C] | Structure (SMILES) |
| --- | --- |
| 118 to 121 | CC1C(=O)Oc2cc(N3CCOCC3)ccc21 (stereo not drawn) |
| 207 | Cn1c(=O)n(Cc2ccc(F)cc2)c(=O)c2cc(C(=O)c3nc(-c4cccnc4)c4ccccn34)ccc21 |
| 98 to 99 | O=C(F)c1c(Cl)ccc2cc(C(F)(F)F)cnc12 |
| 196 to 198 | CCCNC(=O)c1c(OCc2ccc(-c3ccccc3-c3nnn[nH]3)cc2)cc(C)nc1C |
| 94 to 96 | CC1=NC(=NOC(=O)NC2CCC2)SC1(C)C |
| 210 | CC(C)[Si](C#Cc1c2cc3ccccc3cc2c(C#C[Si](C(C)C)(C(C)C)C(C)C)c2cc3ccccc3cc12)(C(C)C)C(C)C |
| 143 to 144 | CCOC(=O)c1cn(-c2ccccc2)nc1OCc1oc2cc(OCc3nc(-c4ccccc4)oc3C)ccc2c1-c1ccccc1 |
| 76 to 77 | O=[N+]([O-])c1ccc(OCC(F)(F)F)c([N+](=O)[O-])c1 |
| 287 | NS(=O)(=O)c1cccc(NC(=O)c2cnn3c(C(F)(F)F)cc(-c4ccc(C(F)(F)F)c(Cl)c4)nc23)c1 |
| 114 | COCCOc1ccc(CCCOC(=O)NS(=O)(=O)NCCOC(C)C)c(Oc2ncc(C(F)(F)F)cc2Cl)c1 |
| 280 to 285 | CCCC(c1ccccc1)c1ccc(-c2cnn3c(O)ncnc23)cc1 (stereo not drawn) |
| 84 | COc1ccc(-c2ccnc(-c3ccccc3)c2)cc1F |
| 104 | Cc1c(C)c2ccc(OCCCc3ccccc3)cc2oc1=O |
| 109 to 124 | CCCNC(=O)C(C)Cc1ccc2c(c1)c(Cc1ccc(C(=O)NS(=O)(=O)c3ccccc3C)cc1OC)cn2CC(=O)N(C)C (stereo not drawn) |
| 88 to 90 | COC(=O)c1cccc(-c2ccccc2[N+](=O)[O-])c1 |
| 112 to 114 | CCNS(=O)(=O)CC(=O)C=C(C)N |
| 245 to 246 | Nc1nc2cc(Cl)c(Cl)cc2n1Cc1ccccc1 |
| 88 to 91 | CCOP(=O)(C/C=C\CC1(C(=O)NCC(F)(F)F)c2ccccc2-c2ccccc21)OCC |
| 143 to 145 | CCc1ccc2nnc(C(=O)Oc3ccccc3)cc2c1 |
| 58 to 60 | C=CCN1C(=O)c2cccc(C)c2Oc2ncccc21 |
| 232 to 234 | CCn1cc(C(=O)O)c(=O)c2cc(F)c(N3CCCC(O)C3)c(F)c21 (stereo not drawn) |
| 100 to 101 | CC(C)(C)C(=O)c1ccc(C(=O)NC(=O)c2ccc(F)cc2)cc1 |
| 146 to 148 | O=S(CCCn1cnc(-c2ccc(F)cc2)c1-c1ccncc1)c1ccccc1 (stereo not drawn) |
| 157 to 180 | C#CC1(OC(C)=O)CCC2C3CCC4=CC(=O)CCC4C3C(C(F)F)CC21C (stereo not drawn) |

| melting point [°C] | Structure (SMILES) |
| --- | --- |
| 189 to 190 | Cc1[nH]c(-c2ccccc2)nc1C(C)O (stereo not drawn) |
| 92 to 93 | N#Cc1ccc(OC(Cc2ccc(OCCNC(=O)c3ccc(-c4ccccn4)cc3)cc2)C(=O)O)cc1 (stereo not drawn) |
| 117 to 118 | CNS(=O)(=O)CC(=O)c1cc(OC)ccc1N |
| 144 to 146 | O=C1NC(=O)C(CC#Cc2ccc(Cl)cc2)(Sc2ccc(Cl)cc2)S1 (stereo not drawn) |
| 124 to 126 | CN(Cc1cccc2ccccc12)c1nc(N2CCC(N(C)C)CC2)nc2c(N3CCOCC3)ncnc12 |
| 95 to 97 | CN(C)CCOc1ccc2c(c1)OCC21C(=O)Nc2ccccc21 (stereo not drawn) |
| 131 to 133 | CN=C(SC)N(C)Cc1cc(C)nc(C)c1 |
| 170 to 174 | Cc1cc2cc(CN3CCCCCC3)cnc2cc1NC(=O)c1ccc(-c2ccc(F)cc2)cc1 |
| 110 to 113 | CCN(CC)CCOc1c(-c2ccc(S(C)(=O)=O)cc2)cnn(-c2cccc(Cl)c2)c1=O |
| 118 to 121 | O=C(O)C(CC1CCCC1)c1ccc(-c2ccncc2)cc1 (stereo not drawn) |
| 48 to 50 | CC(C)(C)OC(=O)N1CCC(CBr)CC1 |
| 173 to 174 | CN(C)c1nc(N)nc2c1ncn2C1C=CC(CO)C1 (stereo not drawn) |
| 94 to 96 | CCCCc1ncc(C=O)n1Cc1ccc(C(=O)OC)c(Cl)c1Cl |
| 185 to 186 | Cn1c(Oc2cccc(C(F)(F)F)c2)nc2c(-c3cccc(C(=O)NCC(N)=O)c3)cccc21 |
| 179 to 181 | COc1cccc(NS(=O)(=O)c2ccc(N3CCNC3=O)cc2)c1 |
| 123 to 125 | Nc1cccnc1NCc1ccc(Cl)cc1 |
| 92 to 93 | CN(CCO)Cc1cc(C(=O)c2ccccc2)cc(C2CCCCC2)c1O |
| 86 | CC(C)(C)c1cc(SCCSCC(=O)O)cc(C(C)(C)C)c1O |
| 96 to 98 | COCCn1nc(CC(C)C)c2cn(Cc3cccc4ccccc34)cc2c1=O |
| 157 | CCC1(C)C(=O)c2cc(OC)c(Cl)c(Cl)c2C1=O (stereo not drawn) |
| 81 to 85 | CN=C(NC#N)NCCSCc1ccc(CNC)o1 |

| Structure (SMILES) | melting point [°C] |
| --- | --- |
| COc1cccc(OC)c1C(=O)P(=O)(c1ccccc1)c1ccccc1 | 124 to 126 |
| CCOC(=O)c1ncn2c1[C@@H]1CCCN1C(=O)c1ccccc1-2 | 196 to 197 |
| Cc1cn2cc(NC(=O)c3cc4cc(F)ccc4n3Cc3cccc(F)c3)ccc2n1 | 200 to 203 |
| C[C@@H]1C[C@](C)(O)[C@H](C)N1c1ccc(C#N)c(C(F)(F)F)c1 | 115 to 117 |
| O=C(Nc1ccc2cccnc2c1)c1cc2cc(F)ccc2n1Cc1cccc(F)c1 | 222 to 223 |
